Measurements taken from patent US4263427A, “Monensin urethane derivatives” (priority 1979, dated 1981).
Converted amounts (≈) assume the structure as drawn. Like-named read-outs stand apart in the source and are kept apart here.

Experiments:
Treponema hyodysenteriae = test: Activity against Treponema hyodysenteriae (MIC, blood agar plates); type: cell-based; conditions: Brachyspira hyodysenteriae, 48 h, 42° C., anaerobic
Source text: Testing for activity against Treponema hyodysenteriae, a cause of swine dysentery consisted of inoculation of blood agar plates containing a series of two or fourfold dilutions of the monensin urethane derivatives with tenfold dilutions of the T. hyodysenteriae strain.

Eimeria tenella = test: Anti-coccidial effect of monensin urethanes added to the feed of infected chickens (Table 7); type: in vivo; conditions: infected untreated control 3.0, less than 2.5 significant
Method: This test utilizes ten chickens per drug group. Ten chickens are employed as a weight control and ten chickens as an infected control. The drug is given 48 hours in advance of the infection. One gm. of the test drug is mixed in a mechanical mixer with a sufficient amount of chicken feed to result in the desired dosage. The infection consists of approximately 200,000 oocysts given orally by pipette. The tests lasts for eleven days and then the surviving birds are autopsied and examined for gross lesions in the ceca. The test birds are rated according to the number of survivors and the number of cecal lesions. The results are expressed as average degree of infection (A.D.I.). An average degree of infection of less than 2.5 is considered to be significant.

Bacillus sp. TA 27860 = test: Minimum Inhibitory Concentration, agarwell diffusion assay (Table 6); type: cell-based; conditions: for MIC: Bacillus
Source text: (§1) (a) Lowest twofold dilution giving zone of inhibition in the agarwell
(§2) (b) NRRL collection number, all the rest ate ATCC numbers.

Sarcina lutca 9341 = test: as above; type: cell-based; conditions: Sarcina, 9341, read-out: Minimum Inhibitory Concentration, Sarcina lutca 9341
Source text: as §1, §2

[1] = system: Paceilomyces variotl 25820; test: as above; type: cell-based; conditions: for MIC: read-out: Minimum Inhibitory Concentration, Paceilomyces variotl 25820
Source text: as §1, §2

[2] = system: Streptococcus cellulosac 3313; test: as above; type: cell-based; conditions: for MIC: Streptococcus, 3313, read-out: Minimum Inhibitory Concentration, Streptococcus cellulosac 3313
Source text: as §1, §2

Bacillus megaterium 8CU = test: as above; type: cell-based; conditions: for MIC: Priestia megaterium, 8CU, read-out: Minimum Inhibitory Concentration, Bacillus megaterium 8CU
Source text: as §1, §2

Bacillus subtilis 583 = test: as above; type: cell-based
Source text: as §1, §2

Staph. aureus 6538 = test: as above; type: cell-based; conditions: for MIC: Staphylococcus aureus, 6538, read-out: Minimum Inhibitory Concentration, Staph. aureus 6538
Source text: as §1, §2

Bacillus sp. E 27859 = test: as above; type: cell-based; conditions: for MIC: Bacillus
Source text: as §1, §2

[3] = system: Streptococcus faecium 8043; test: as above; type: cell-based
Source text: as §1, §2

MycoBacterium phiel 355 = test: as above; type: cell-based; conditions: Mycobacterium, 355, read-out: Minimum Inhibitory Concentration, MycoBacterium phiel 355
Source text: as §1, §2

[4] = Oral antihypertensive activity: blood pressure and heart rate (Table 9); type: in vivo
Source text: Compounds of formula I, and their pharmaceutically acceptable salts are orally active as antihypertensive agents.

Plasmodium berghei = test: Oral antimalarial activity against Plasmodium berghei in mice; type: in vivo; conditions: p.o.
Source text: Compounds of formula I wherein R4 is aryl, haloaryl or nitroaryl and their pharmaceutically acceptable salts are orally active as antimalarial agents.

rumen fluid = conditions: 50 ppm; control 100
[5] = SP.TA27860, Bacillus sp. TA 27860, read-out: Minimum Inhibitory Concentration
[6] = Bacillus subtilis, 583, Bacillus subtilis 583 (NRRL), read-out: Minimum Inhibitory Concentration
[7] = SP.E27859, Bacillus sp. E 27859, read-out: Minimum Inhibitory Concentration
[8] = Enterococcus faecium, 8043, Streptococcus faecium 8043, read-out: Minimum Inhibitory Concentration

CCC1(C2OC(C3OC(O)(COC(=O)NC4CCCCC4)C(C)CC3C)CC2C)CCC(C2(C)CCC3(CC(O)C(C)C(C(C)C(OC)C(C)C(=O)O)O3)O2)O1 (stereo not drawn) [Monensin A, cyclohexylurethane]
MIC (Treponema hyodysenteriae): 0.4 µg/mL (≈ 0.502 µM) | Average Degree of Infected (A.D.I.) (Eimeria tenella; 125 ppm in feed): 0.8 | MIC (Bacillus sp. TA 27860; SP.TA27860, read-out: Minimum Inhibitory Concentration, Bacillus sp. TA 27860): 0.6 µg/mL (≈ 0.754 µM) | MIC (Sarcina lutca 9341): 0.8 µg/mL (≈ 1 µM) | MIC [1]: 3.1 µg/mL (≈ 3.89 µM) | MIC [2]: 3.1 µg/mL (≈ 3.89 µM) | MIC (Bacillus megaterium 8CU): 0.4 µg/mL (≈ 0.502 µM) | MIC (Bacillus subtilis 583; Bacillus subtilis, 583, read-out: Minimum Inhibitory Concentration, Bacillus subtilis 583 (NRRL)): 0.8 µg/mL (≈ 1 µM) | MIC (Staph. aureus 6538): 1.6 µg/mL (≈ 2.01 µM) | MIC (Bacillus sp. E 27859; SP.E27859, read-out: Minimum Inhibitory Concentration, Bacillus sp. E 27859): 0.2 µg/mL (≈ 0.251 µM) | MIC ([3]; Enterococcus faecium, 8043, read-out: Minimum Inhibitory Concentration, Streptococcus faecium 8043): 0.1 µg/mL (≈ 0.126 µM) | MIC (MycoBacterium phiel 355): 3.1 µg/mL (≈ 3.89 µM)

CCC1(C2OC(C3OC(O)(COC(=O)Nc4ccc(Cl)cc4)C(C)CC3C)CC2C)CCC(C2(C)CCC3(CC(O)C(C)C(C(C)C(OC)C(C)C(=O)O)O3)O2)O1 (stereo not drawn) [Monensin A, 4-chlorophenylurethane]
MIC (Treponema hyodysenteriae): 0.08 µg/mL (≈ 0.097 µM) | Day of Maximum Change, Blood Pressure ([4]; oral dose 1 mg/kg): 5 days | Day of Maximum Change, Heart Rate ([4]; oral dose 1 mg/kg): 5 days | Maximum Change (%), Blood Pressure ([4]; oral dose 1 mg/kg): 20% | Maximum Change (%), Heart Rate ([4]; oral dose 1 mg/kg): 19% | Mean Blood Pressure at time of maximum effect ([4]; oral dose 1 mg/kg): 179 mm Hg | Mean Blood Pressure before treatment ([4]; oral dose 1 mg/kg): 224 mm Hg | Average Degree of Infected (A.D.I.) (Eimeria tenella; 65 ppm in feed): 0.8 | MIC (Bacillus sp. TA 27860; [5]): 0.2 µg/mL (≈ 0.243 µM) | MIC (Sarcina lutca 9341): 0.2 µg/mL (≈ 0.243 µM) | MIC [1]: 3.1 µg/mL (≈ 3.76 µM) | MIC [2]: 0.8 µg/mL (≈ 0.97 µM) | MIC (Bacillus megaterium 8CU): 0.2 µg/mL (≈ 0.243 µM) | MIC (Bacillus subtilis 583; [6]): 0.4 µg/mL (≈ 0.485 µM) | MIC (Staph. aureus 6538): 0.4 µg/mL (≈ 0.485 µM) | MIC (Bacillus sp. E 27859; [7]): 0.02 µg/mL (≈ 0.0243 µM) | MIC [3, 8]: 0.05 µg/mL (≈ 0.0606 µM) | MIC (MycoBacterium phiel 355): 0.8 µg/mL (≈ 0.97 µM) | ED50 (Plasmodium berghei): 2.3 mg/kg

CCC1(C2OC(C3OC(O)(COC(=O)Nc4ccc(I)cc4)C(C)CC3C)CC2C)CCC(C2(C)CCC3(CC(O)C(C)C(C(C)C(OC)C(C)C(=O)O)O3)O2)O1 (stereo not drawn) [Monensin A, 4-iodophenylurethane]
Average Degree of Infected (A.D.I.) (Eimeria tenella; 125 ppm in feed): 0.1

COC(C(C)C(=O)O)C(C)C1OC2(CCC(C)(C3CCC(C)(C4OC(C5OC(O)(COC(=O)NC(C)c6ccccc6)C(C)CC5C)CC4C)O3)O2)CC(O)C1C [Monensin B, (R)-1-phenethylurethane]
MIC (Treponema hyodysenteriae): 0.4 µg/mL (≈ 0.497 µM) | Rate of Gas Production, Percent Production of Control Fermentations (rumen fluid): 103.3% | Total VFA, Percent Production of Control Fermentations (rumen fluid): 82.7% | Minimum Inhibitory Concentration (Bacillus sp. TA 27860; Bacillus sp. TA 27860, listed as Monensin B,(R)-1-phenethylurethane): 1.6 meg/ml | MIC (Sarcina lutca 9341): 3.1 µg/mL (≈ 3.86 µM) | Minimum Inhibitory Concentration ([1]; Paceilomyces variotl 25820, listed as Monensin B,(R)-1-phenethylurethane): 3.1 meg/ml | Minimum Inhibitory Concentration ([2]; Streptococcus cellulosac 3313, listed as Monensin B,(R)-1-phenethylurethane): 3.1 meg/ml | Minimum Inhibitory Concentration (Bacillus megaterium 8CU; Bacillus megaterium 8CU, listed as Monensin B,(R)-1-phenethylurethane): 1.6 meg/ml | MIC (Bacillus subtilis 583; [6]): 1.6 µg/mL (≈ 1.99 µM) | Minimum Inhibitory Concentration (Staph. aureus 6538; Staph. aureus 6538, listed as Monensin B,(R)-1-phenethylurethane): 6.3 meg/ml | Minimum Inhibitory Concentration (Bacillus sp. E 27859; Bacillus sp. E 27859, listed as Monensin B,(R)-1-phenethylurethane): 0.4 meg/ml | Minimum Inhibitory Concentration ([3]; Streptococcus faecium 8043, listed as Monensin B,(R)-1-phenethylurethane): 0.8 meg/ml | MIC (MycoBacterium phiel 355): 12.5 µg/mL (≈ 15.5 µM)

CCC1(C2OC(C3OC(O)(COC(=O)Nc4ccc(F)cc4)C(C)CC3C)CC2C)CCC(C2(C)CCC3(CC(O)C(C)C(C(C)C(OC)C(C)C(=O)O)O3)O2)O1 (stereo not drawn) [Monensin A, 4-fluorophenylurethane]
MIC (Treponema hyodysenteriae): 0.08 µg/mL (≈ 0.099 µM) | Day of Maximum Change, Blood Pressure ([4]; oral dose 3 mg/kg): 2 days | Maximum Change (%), Blood Pressure ([4]; oral dose 3 mg/kg): 17% | Mean Blood Pressure at time of maximum effect ([4]; oral dose 3 mg/kg): 182 mm Hg | Mean Blood Pressure before treatment ([4]; oral dose 3 mg/kg): 220 mm Hg | Average Degree of Infected (A.D.I.) (Eimeria tenella; 125 ppm in feed): 1.0 | MIC (Bacillus sp. TA 27860; [5]): 0.8 µg/mL (≈ 0.99 µM) | MIC (Sarcina lutca 9341): 0.8 µg/mL (≈ 0.99 µM) | MIC [1]: 3.1 µg/mL (≈ 3.84 µM) | MIC [2]: 3.1 µg/mL (≈ 3.84 µM) | MIC (Bacillus megaterium 8CU): 0.4 µg/mL (≈ 0.495 µM) | MIC (Bacillus subtilis 583; [6]): 0.8 µg/mL (≈ 0.99 µM) | MIC (Staph. aureus 6538): 1.6 µg/mL (≈ 1.98 µM) | MIC (Bacillus sp. E 27859; [7]): 0.2 µg/mL (≈ 0.248 µM) | MIC [3, 8]: 0.1 µg/mL (≈ 0.124 µM) | MIC (MycoBacterium phiel 355): 3.1 µg/mL (≈ 3.84 µM)

CCC1(C2OC(C3OC(O)(COC(=O)Nc4ccc([N+](=O)[O-])cc4)C(C)CC3C)CC2C)CCC(C2(C)CCC3(CC(O)C(C)C(C(C)C(OC)C(C)C(=O)O)O3)O2)O1 (stereo not drawn) [Monensin A, 4-nitrophenylurethane]
Average Degree of Infected (A.D.I.) (Eimeria tenella; 75 ppm in feed): 0.5

CCC1(C2OC(C3OC(O)(COC(=O)Nc4ccc(C)cc4)C(C)CC3C)CC2C)CCC(C2(C)CCC3(CC(O)C(C)C(C(C)C(OC)C(C)C(=O)O)O3)O2)O1 (stereo not drawn) [Monensin A, 4-methylphenylurethane, Monensin A, 4-methyl phenylurethane]
Day of Maximum Change, Blood Pressure ([4]; oral dose 1 mg/kg): 3 days | Day of Maximum Change, Heart Rate ([4]; oral dose 1 mg/kg): 4 days | Maximum Change (%), Blood Pressure ([4]; oral dose 1 mg/kg): 16% | Maximum Change (%), Heart Rate ([4]; oral dose 1 mg/kg): 15% | Mean Blood Pressure at time of maximum effect ([4]; oral dose 1 mg/kg): 182 mm Hg | Mean Blood Pressure before treatment ([4]; oral dose 1 mg/kg): 217 mm Hg | Average Degree of Infected (A.D.I.) (Eimeria tenella; 75 ppm in feed): 1.1 | MIC (Bacillus sp. TA 27860; [5]): 0.2 µg/mL (≈ 0.249 µM) | MIC (Sarcina lutca 9341): 0.4 µg/mL (≈ 0.497 µM) | MIC [1]: 1.6 µg/mL (≈ 1.99 µM) | MIC [2]: 0.8 µg/mL (≈ 0.995 µM) | MIC (Bacillus megaterium 8CU): 0.2 µg/mL (≈ 0.249 µM) | MIC (Bacillus subtilis 583; [6]): 0.4 µg/mL (≈ 0.497 µM) | MIC (Staph. aureus 6538): 0.4 µg/mL (≈ 0.497 µM) | MIC (Bacillus sp. E 27859; [7]): 0.05 µg/mL (≈ 0.0622 µM) | MIC [3, 8]: 0.2 µg/mL (≈ 0.249 µM) | MIC (MycoBacterium phiel 355): 1.6 µg/mL (≈ 1.99 µM)

CCC1(C2OC(C3OC(O)(COC(=O)Nc4ccccc4)C(C)CC3C)CC2C)CCC(C2(C)CCC3(CC(O)C(C)C(C(C)C(OC)C(C)C(=O)O)O3)O2)O1 (stereo not drawn) [Monensin A, phenylurethane]
MIC (Treponema hyodysenteriae): 0.08 to 0.4 µg/mL (≈ 0.101 to 0.506 µM) | Day of Maximum Change, Blood Pressure ([4]; oral dose 10 mg/kg): 2 days | Maximum Change (%), Blood Pressure ([4]; oral dose 10 mg/kg): 26% | Mean Blood Pressure at time of maximum effect ([4]; oral dose 10 mg/kg): 170 mm Hg | Mean Blood Pressure before treatment ([4]; oral dose 10 mg/kg): 229 mm Hg | Average Degree of Infected (A.D.I.) (Eimeria tenella; 75 ppm in feed): 0.9 | MIC (Bacillus sp. TA 27860; [5]): 0.4 µg/mL (≈ 0.506 µM) | MIC (Sarcina lutca 9341): 0.8 µg/mL (≈ 1.01 µM) | MIC [1]: 3.1 µg/mL (≈ 3.92 µM) | MIC [2]: 3.1 µg/mL (≈ 3.92 µM) | MIC (Bacillus megaterium 8CU): 0.4 µg/mL (≈ 0.506 µM) | MIC (Bacillus subtilis 583; [6]): 0.4 µg/mL (≈ 0.506 µM) | MIC (Staph. aureus 6538): 0.8 µg/mL (≈ 1.01 µM) | MIC (Bacillus sp. E 27859; [7]): 0.05 µg/mL (≈ 0.0633 µM) | MIC [3, 8]: 0.1 µg/mL (≈ 0.127 µM) | MIC (MycoBacterium phiel 355): 3.1 µg/mL (≈ 3.92 µM) | ED50 (Plasmodium berghei): 4 mg/kg
